This note sets out measurements from US9422254B2, “Methoxyacrylate-based fungicide and methods for preparing and using the same” (priority 2008, dated 2016).

SMILES strings stand for the structures.

For one assay, the system named is Gibberella zea. Kind of assay: organism not typed. Particulars: read-out: Inhibition rate (%). It counts as cell-based.
The next assay has as its system Diaporthe medusae. Kind of assay: microbe, parasite or virus in culture. The class given is cell-based.

Take `CO/C=C(/C(=O)OC)c1ccccc1CSc1nc2cc(OC)ccc2s1` [Compound of Formula (I), (E)-methyl 3-methoxy-2-(2-((5-methoxy-benzothiazol-2-ylthio)methyl)phenyl)acrylate]: the inhibition at 0.3 µg/mL in the assay on Gibberella zea worked out at 34.9%; in the assay on Diaporthe medusae (Diaporthe, 0.3 mg/L, read-out: Inhibition rate (%)), 55.3%. In addition, the inhibition at 3 µg/mL with Gibberella zea came to 45.9%; in the assay on Diaporthe medusae (Diaporthe, 3 mg/L, read-out: Inhibition rate (%)), 80.1%. Also, the inhibition at 30 µg/mL with Gibberella zea was determined as 54.6%; in the assay with Diaporthe medusae (Diaporthe, 30 mg/L, read-out: Inhibition rate (%)), 87.2%. Also, in the assay with Diaporthe medusae, the “in vitro effect” value is listed as “particularly effective”.

As usually defined, the inhibition is the percentage by which the read-out fell short of the control.
